{
  "source": "the Kinase Knowledgebase extract (Sharma et al. 2016)",
  "data": [
    {"target": "CDK2 (UniProt P24941)", "assay": "Enzyme Assay", "units": {"Ki": "nM"}, "values": [
      {"smiles": "O=C(CC1CCCC1)Nc1cc(-n2cnc(Nc3ccccc3)n2)ccn1", "Ki": "> 1000"},
      {"smiles": "CC(=O)N1[C@H](C)CN(c2cc(-n3cnc(Nc4ccc(N5CCN(S(=O)(=O)c6ccc(C)cc6)CC5)cc4)n3)ccn2)C[C@@H]1C", "Ki": "500 to 1000"},
      {"smiles": "CN(CCO)c1cc(-n2cnc(Nc3ccccc3)n2)ccn1", "Ki": "< 500"},
      {"smiles": "CC(=O)N1[C@H](C)CN(c2cc(-n3cnc(Nc4ccc(N5CCOCC5)cc4)n3)ccn2)C[C@@H]1C", "Ki": "< 500"},
      {"smiles": "CN(C)CCCN(C)c1cc(-n2cnc(Nc3ccccc3)n2)ccn1", "Ki": "> 1000"},
      {"smiles": "c1ccc(-n2cnc(Nc3ccnc(N4CCOCC4)c3)n2)cc1", "Ki": "500 to 1000"},
      {"smiles": "c1ccc(Nc2ncn(-c3ccnc(NC4CCCCC4)c3)n2)cc1", "Ki": "< 500"},
      {"smiles": "CC(C)Oc1cccc(Nc2ncn(-c3ccccc3)n2)c1", "Ki": "> 1000"},
      {"smiles": "COC(=O)Nc1ccc(Nc2ncn(-c3ccnc(N4C[C@@H](C)N(C(C)=O)[C@@H](C)C4)c3)n2)cc1", "Ki": "< 500"},
      {"smiles": "CN1C(C)(C)CC(Nc2cc(-n3cnc(Nc4ccccc4)n3)ccn2)CC1(C)C", "Ki": "500 to 1000"},
      {"smiles": "c1ccc(-n2cnc(Nc3ccnc(NCCN4CCOCC4)c3)n2)cc1", "Ki": "> 1000"},
      {"smiles": "CCCOC(=O)Nc1ccc(Nc2ncn(-c3ccnc(N4C[C@@H](C)N(C(C)=O)[C@@H](C)C4)c3)n2)cc1", "Ki": "< 500"},
      {"smiles": "CC(=O)N1[C@H](C)CN(c2cc(-n3cnc(Nc4ccc(NC(=O)OCC(C)C)cc4)n3)ccn2)C[C@@H]1C", "Ki": "500 to 1000"},
      {"smiles": "COCC(=O)N1CCCN(c2cc(-n3cnc(Nc4ccccc4)n3)ccn2)CC1", "Ki": "> 1000"},
      {"smiles": "CN(Cc1ccccc1)c1cc(-n2cnc(Nc3ccccc3)n2)ccn1", "Ki": "< 500"},
      {"smiles": "CC(=O)N1[C@H](C)CN(c2cc(-n3cnc(Nc4ccc(NC(=O)C(F)(F)F)cc4)n3)ccn2)C[C@@H]1C", "Ki": "< 500"},
      {"smiles": "CC(C)CC(=O)N1CCCN(c2cc(-n3cnc(Nc4ccccc4)n3)ccn2)CC1", "Ki": "> 1000"},
      {"smiles": "CN(Cc1cccnc1)c1cc(-n2cnc(Nc3ccccc3)n2)ccn1", "Ki": "< 500"},
      {"smiles": "OC[C@H]1CCCN(c2cc(-n3cnc(Nc4ccccc4)n3)ccn2)C1", "Ki": "< 500"},
      {"smiles": "COCCN(C)c1cc(-n2cnc(Nc3ccccc3)n2)ccn1", "Ki": "< 500"},
      {"smiles": "CC(=O)N1[C@H](C)CN(c2cc(-n3cnc(Nc4ccc(NC(=O)OC(C)C)cc4)n3)ccn2)C[C@@H]1C", "Ki": "500 to 1000"},
      {"smiles": "CC(=O)N1[C@H](C)CN(c2cc(-n3cnc(Nc4ccc(NC(=O)NC(C)C)cc4)n3)ccn2)C[C@@H]1C", "Ki": "< 500"},
      {"smiles": "COc1cc(Nc2ncn(-c3ccc(C#N)cc3)n2)cc(OC)c1OC", "Ki": "500 to 1000"},
      {"smiles": "CCCN(CCO)c1cc(-n2cnc(Nc3ccccc3)n2)ccn1", "Ki": "< 500"},
      {"smiles": "CCOC(=O)c1ccc(Nc2ncn(-c3ccnc(N4CCCN(C(C)=O)CC4)c3)n2)cc1", "Ki": "> 1000"},
      {"smiles": "CC(=O)N1[C@H](C)CN(c2cc(-n3cnc(Nc4ccc(NC(=O)N(C)C)cc4)n3)ccn2)C[C@@H]1C", "Ki": "> 1000"},
      {"smiles": "CC(=O)N1CCCN(c2cc(-n3cnc(Nc4ccccc4)n3)ccn2)CC1", "Ki": "500 to 1000"},
      {"smiles": "O=C(CCc1ccccc1)Nc1cc(-n2cnc(Nc3ccccc3)n2)ccn1", "Ki": "500 to 1000"},
      {"smiles": "CCOc1ccc(Nc2ncn(-c3ccccc3)n2)cc1", "Ki": "> 1000"},
      {"smiles": "CC(=O)N1[C@H](C)CN(c2cc(-n3cnc(Nc4ccccc4)n3)ccn2)C[C@@H]1C", "Ki": "< 500"},
      {"smiles": "CCCC(=O)N1CCCN(c2cc(-n3cnc(Nc4ccccc4)n3)ccn2)CC1", "Ki": "> 1000"},
      {"smiles": "CCN(CC)CCNc1cc(-n2cnc(Nc3ccccc3)n2)ccn1", "Ki": "> 1000"},
      {"smiles": "CCOC(=O)c1ccc(Nc2ncn(-c3ccnc(N4C[C@@H](C)N(C(C)=O)[C@@H](C)C4)c3)n2)cc1", "Ki": "500 to 1000"},
      {"smiles": "CC(C)CCN(C)c1cc(-n2cnc(Nc3ccccc3)n2)ccn1", "Ki": "< 500"},
      {"smiles": "CC(C)C(=O)N1CCCN(c2cc(-n3cnc(Nc4ccccc4)n3)ccn2)CC1", "Ki": "> 1000"},
      {"smiles": "N#CCC(=O)N1CCCN(c2cc(-n3cnc(Nc4ccccc4)n3)ccn2)CC1", "Ki": "< 500"},
      {"smiles": "CCNC(=O)Nc1ccc(Nc2ncn(-c3ccnc(N4C[C@@H](C)N(C(C)=O)[C@@H](C)C4)c3)n2)cc1", "Ki": "< 500"},
      {"smiles": "CC(=O)N1[C@H](C)CN(c2cc(-n3cnc(Nc4ccc(NC(=O)OCC(C)(C)C)cc4)n3)ccn2)C[C@@H]1C", "Ki": "500 to 1000"},
      {"smiles": "CCN(CCO)c1cc(-n2cnc(Nc3ccccc3)n2)ccn1", "Ki": "< 500"},
      {"smiles": "CC(=O)N1[C@H](C)CN(c2cc(-n3cnc(Nc4ccc(NC(=O)NC(C)(C)C)cc4)n3)ccn2)C[C@@H]1C", "Ki": "500 to 1000"},
      {"smiles": "c1ccc(Nc2ncn(-c3ccnc(N4CCCCCCC4)c3)n2)cc1", "Ki": "< 500"},
      {"smiles": "O=c1[nH]c2ccccc2n1C1CCN(c2cc(-n3cnc(Nc4ccccc4)n3)ccn2)CC1", "Ki": "> 1000"},
      {"smiles": "CCCNC(=O)Nc1ccc(Nc2ncn(-c3ccnc(N4C[C@@H](C)N(C(C)=O)[C@@H](C)C4)c3)n2)cc1", "Ki": "< 500"},
      {"smiles": "O=C(Cc1ccccc1)Nc1cc(-n2cnc(Nc3ccccc3)n2)ccn1", "Ki": "< 500"},
      {"smiles": "c1ccc(Nc2ncn(-c3ccnc(N4CCCCC4)c3)n2)cc1", "Ki": "< 500"},
      {"smiles": "CCC(=O)N1CCCN(c2cc(-n3cnc(Nc4ccccc4)n3)ccn2)CC1", "Ki": "> 1000"},
      {"smiles": "O=C(C1CCCO1)N1CCN(c2cc(-n3cnc(Nc4ccccc4)n3)ccn2)CC1", "note": "(stereo not given)", "Ki": "> 1000"},
      {"smiles": "CC(=O)N1[C@H](C)CN(c2cc(-n3cnc(Nc4ccc(N5CCN(C(=O)OC(C)(C)C)CC5)cc4)n3)ccn2)C[C@@H]1C", "Ki": "< 500"},
      {"smiles": "CC(=O)N1CCCN(c2cc(-n3cnc(Nc4ccccc4)n3)ncn2)CC1", "Ki": "> 1000"},
      {"smiles": "CC(=O)N1[C@H](C)CN(c2cc(-n3cnc(Nc4ccccc4)n3)ncn2)C[C@@H]1C", "Ki": "> 1000"},
      {"smiles": "CCOC(=O)Nc1ccc(Nc2ncn(-c3ccnc(N4C[C@@H](C)N(C(C)=O)[C@@H](C)C4)c3)n2)cc1", "Ki": "< 500"},
      {"smiles": "c1ccc(-n2cnc(Nc3ccc(N4CCOCC4)cc3)n2)cc1", "Ki": "> 1000"},
      {"smiles": "CC(=O)N1[C@H](C)CN(c2cc(-n3cnc(Nc4ccc(N)cc4)n3)ccn2)C[C@@H]1C", "Ki": "< 500"},
      {"smiles": "CN1CCN(c2ccc(Nc3ncn(-c4ccccc4)n3)cn2)CC1", "Ki": "> 1000"},
      {"smiles": "c1ccc(-n2cnc(Nc3ccc(N4CCOCC4)nc3)n2)cc1", "Ki": "> 1000"},
      {"smiles": "CC1CCCN1c1cc(-n2cnc(Nc3ccccc3)n2)ccn1", "note": "(stereo not given)", "Ki": "< 500"},
      {"smiles": "C[C@@H]1CN(c2cc(-n3cnc(Nc4ccccc4)n3)ncn2)C[C@H](C)N1", "Ki": "> 1000"},
      {"smiles": "COc1cc(Nc2ncn(-c3ccccc3)n2)cc(OC)c1OC", "Ki": "> 1000"},
      {"smiles": "O=C(Nc1cc(-n2cnc(Nc3ccccc3)n2)ccn1)C1CCCCC1", "Ki": "500 to 1000"},
      {"smiles": "CC(=O)N1[C@H](C)CN(c2cc(-n3cnc(Nc4ccc(NC(=O)c5cccs5)cc4)n3)ccn2)C[C@@H]1C", "Ki": "< 500"},
      {"smiles": "CC(=O)N1[C@H](C)CN(c2cc(-n3cnc(Nc4ccc(NC(=O)c5ccco5)cc4)n3)ccn2)C[C@@H]1C", "Ki": "500 to 1000"},
      {"smiles": "CC(C)(C)CC(=O)Nc1cc(-n2cnc(Nc3ccccc3)n2)ccn1", "Ki": "> 1000"},
      {"smiles": "c1ccc(-n2cnc(Nc3ccc4c(c3)OCCO4)n2)cc1", "Ki": "> 1000"},
      {"smiles": "CCOc1cccc(Nc2ncn(-c3ccccc3)n2)c1", "Ki": "> 1000"},
      {"smiles": "c1ccc(Nc2ncn(-c3ccnc(N4CCCCCC4)c3)n2)cc1", "Ki": "< 500"}
    ]}
  ]
}
